Consider four compounds from US12552752B2, “Atropisomers of pyridazinone derivatives as herbicides” (FMC Corporation, priority 2020, dated 2026).

The structures appear in SMILES notation.

Format in all cases: in vivo
Assay [1] concerns barnyardgrass (BYG, Echinochloa crus-galli). Briefly: Test A preemergence, barnyardgrass. The following applies: PRE, 0 to 100 scale, approximately 10 d. From the text:
(§1) Seeds of plant species selected from barnyardgrass (BYG, Echinochloa crus-galli), kochia (KOC, Kochia scoparia), ragweed (common ragweed, Ambrosia elatior), ryegrass, Italian (RGI, Lolium multiflorum), foxtail, giant (FTI, Setaria faberii), foxtail, green (Setaria viridis) and pigweed (PWR, Amaranthus retroflexus) were planted into a blend of loam soil and sand and treated preemergence with a directed soil spray using test chemicals formulated in a non-phytotoxic solvent mixture which included a surfactant. At the same time, plants selected from these weed species and also wheat (WWT, Triticum aestivum), corn (CPI, Zea mays), blackgrass (BKG, Alopecurus myosuroides) and galium (GAL, catchweed bedstraw, Galium aparine) were planted in pots containing the same blend of loam soil and sand and treated with postemergence applications of test chemicals formulated in the same manner Plants ranged in height from 2 to 10 cm and were in the one- to two-leaf stage for the postemergence treatment. Treated plants and untreated controls were maintained in a greenhouse for approximately 10 d, after which time all treated plants were compared to untreated controls and visually evaluated for injury. Plant response ratings, summarized in Tables 1-4, are based on a 0 to 100 scale where 0 is no effect and 100 is complete control. A dash (−) response means no test result. The ratings are followed by a letter representing the symptomology where S is Albinism, C is Chlorosis, G is Growth Inhibition and E is Emergence.

Assay [2] relates to foxtail, giant (FTI, Setaria faberii). Briefly: Test A postemergence, giant foxtail. The conditions noted are these: POST, 0 to 100 scale, approximately 10 d.
From the text: as §1

The test system of assay [3] is wheat (WWT, Triticum aestivum). Briefly: Test A postemergence, wheat. The following applies: POST, 0 to 100 scale, approximately 10 d.
From the text: as §1

Assay [4] relates to ragweed (common ragweed, Ambrosia elatior). Briefly: Test A postemergence, ragweed. The conditions noted are these: POST, 0 to 100 scale, approximately 10 d.
From the text: as §1

The test system of assay [5] is pigweed (PWR, Amaranthus retroflexus). Briefly: Test A postemergence, pigweed. The conditions noted are these: POST, 0 to 100 scale, approximately 10 d.
From the text: as §1

Assay [6] concerns galium (GAL, catchweed bedstraw, Galium aparine). The assay is described as follows: Test A postemergence, galium. The conditions noted are these: POST, 0 to 100 scale, approximately 10 d.
From the text: as §1

For assay [7], the system named is ryegrass, Italian (RGI, Lolium multiflorum). Briefly: Test A preemergence, Italian ryegrass. The conditions noted are these: PRE, 0 to 100 scale, approximately 10 d.
From the text: as §1

For assay [8], the system named is kochia (KOC, Kochia scoparia). The assay is described as follows: Test A postemergence, kochia. The following applies: POST, 0 to 100 scale, approximately 10 d.
From the text: as §1

Assay [9] has as its system barnyardgrass (BYG, Echinochloa crus-galli). The assay is described as follows: Test A postemergence, barnyardgrass. The following applies: POST, 0 to 100 scale, approximately 10 d.
From the text: as §1

A further assay relates to corn (CPI, Zea mays). Briefly: Test A postemergence, corn. The conditions noted are these: POST, 0 to 100 scale, approximately 10 d.
From the text: as §1

In assay [10] the test system is kochia (KOC, Kochia scoparia). Briefly: Test A preemergence, kochia. The conditions noted are these: PRE, 0 to 100 scale, approximately 10 d.
From the text: as §1

Assay [11] has as its system ryegrass, Italian (RGI, Lolium multiflorum). Briefly: Test A postemergence, Italian ryegrass. The following applies: POST, 0 to 100 scale, approximately 10 d.
From the text: as §1

Assay [12] relates to foxtail, giant (FTI, Setaria faberii). Briefly: Test A preemergence, giant foxtail. The following applies: PRE, 0 to 100 scale, approximately 10 d.
From the text: as §1

In assay [13] the test system is blackgrass (BKG, Alopecurus myosuroides). Briefly: Test A postemergence, blackgrass. The following applies: POST, 0 to 100 scale, approximately 10 d.
From the text: as §1

Assay [14] deals with pigweed (PWR, Amaranthus retroflexus). Briefly: Test A preemergence, pigweed. The conditions noted are these: PRE, 0 to 100 scale, approximately 10 d.
From the text: as §1

Setting [15] is: 125 g ai/ha, listed as drawing 27.
Setting [16] is: 31 g ai/ha, listed as drawing 27.
[17] abbreviates: 31 g ai/ha, listed as drawing 26.
[18] abbreviates: 125 g ai/ha, listed as drawing 26.
Setting [19] is: 31 g ai/ha, listed as drawing 25.
The mark [20] stands for this setting: 125 g ai/ha, listed as drawing 25.
Where [21] appears, read: 31 g ai/ha, listed as drawing 28.
The mark [22] stands for this setting: 125 g ai/ha, listed as drawing 28.

Consider `Cc1ccc2ccccc2c1-c1c(O)c(Cl)nn(C)c1=O` (racemic) [3 (Enantiomer 3A)], for which, in assay [1] (setting [15]), the “Plant response rating BYG” value was determined as 50 S. Moreover, the “Plant response rating FTI” value in assay [2] (setting [16]) is given as 20 S. For the same compound, in [3] (31 g ai/ha), the “Plant response rating WWT” value is 0. Also, in [4] (setting [15]), the “Plant response rating RWC” value is 100 C. The “Plant response rating PWR” value in assay [5] (125 g ai/ha) was determined as 100 C. The “Plant response rating GAL” value in assay [6] (setting [15]) came out at 100 C. Also, the “Plant response rating RGI” value in [7] (setting [16]) stood at 10 S. Besides, in assay [8] (125 g ai/ha), the “Plant response rating KOC” value was found to be 90 S.
In the case of `Cc1ccc2ccc(C)c(-c3c(O)c(Cl)nn(C)c3=O)c2c1` (single isomer, unassigned) [2 (Enantiomer 2B)], the “Plant response rating BYG” value worked out at 90 S in assay [1] (setting [17]), 100 C in assay [1] (setting [18]), 80 C in assay [9] (setting [17]) and 90 C in [9] (setting [18]). The “Plant response rating FTI” value came to 80 S in [2] (setting [17]), 90 S in [2] (setting [18]), 100 C in [12] (setting [17]) and 100 C in assay [12] (setting [18]). Moreover, the “Plant response rating WWT” value in [3] (setting [17]) is given as 0; in assay [3] (setting [18]) it was 30 S. In addition, the “Plant response rating RWC” value in assay [4] (setting [17]) and in assay [4] (setting [18]) was 100 C 100 C each time. Further, the “Plant response rating CPI” value in the assay with corn (CPI, Zea mays) (setting [17]) stood at 0; in the assay with corn (CPI, Zea mays) (125 g ai/ha), 30 G. Also, in [5] (125 g ai/ha), the “Plant response rating PWR” value turned out to be 100 C 100 C 100 C 100 C. The “Plant response rating KOC” value in [10] (setting [17]) was 0; in assay [10] (setting [18]), 90 C; in assay [8] (31 g ai/ha) it was 60 S; in assay [8] (setting [18]) it was 70 S. Also, the “Plant response rating GAL” value amounted to 100 C in [6] (setting [17]) and 90 C in assay [6] (setting [18]). In addition, the “Plant response rating RGI” value came out at 80 S in assay [7] (setting [17]), 100 S in [7] (setting [18]), 100 C in assay [11] (setting [17]) and 100 C in assay [11] (setting [18]). The entries for the “Plant response rating BKG” value in [13] (setting [17]) and in assay [13] (setting [18]) were 30 C and 40 S, respectively.
In the case of `Cc1ccc2ccc(C)c(-c3c(O)c(Cl)nn(C)c3=O)c2c1` (single isomer, unassigned) [2 (Enantiomer 2A)], the “Plant response rating BYG” value in assay [1] (setting [19]) was found to be 0; in assay [1] (setting [20]), 50 G; in [9] (setting [19]), 20 C; in assay [9] (setting [20]) it was 30 C. The “Plant response rating FTI” value in [2] (setting [19]) turned out to be 30 S; in assay [2] (setting [20]) it was 60 S; in assay [12] (setting [19]), 20 S; in assay [12] (setting [20]), 40 S. The “Plant response rating PWR” value in assay [14] (31 g ai/ha), in [14] (125 g ai/ha), in assay [5] (31 g ai/ha) and in [5] (125 g ai/ha) was 100 C 100 C 100 C 100 C in each case. Moreover, the “Plant response rating WWT” value in [3] (setting [19]) and in assay [3] (setting [20]) was 0 each time. Besides, the “Plant response rating RWC” value in [4] (setting [19]) and in assay [4] (setting [20]) was 90 S 90 S throughout. Also, the “Plant response rating CPI” value with corn (CPI, Zea mays) (setting [19]) is recorded as 10 G; in the assay on corn (CPI, Zea mays) (125 g ai/ha), 30 G. In addition, the “Plant response rating KOC” value in [10] (setting [19]) was 10 C; in [10] (setting [20]), 80 S; in assay [8] (31 g ai/ha) it was 60 S; in assay [8] (setting [20]), 80 S. The “Plant response rating GAL” value in assay [6] (setting [19]) and in [6] (setting [20]) was 100 C 100 C throughout. Moreover, the “Plant response rating RGI” value in assay [7] (setting [19]) was found to be 20 G; in assay [7] (setting [20]), 20 G; in assay [11] (setting [19]), 30 S; in assay [11] (setting [20]), 40 S. In addition, the “Plant response rating BKG” value in [13] (setting [19]) is 0; in [13] (setting [20]) it was 20 S.
As to `Cc1ccc2ccccc2c1-c1c(O)c(Cl)nn(C)c1=O` (racemic) [3 (Enantiomer 3B)], the “Plant response rating BYG” value in assay [1] (setting [21]) is listed as 80 S; in assay [1] (1000 g ai/ha), 100 C; in assay [9] (1000 g ai/ha), 90 S. Besides, the “Plant response rating FTI” value in [2] (setting [22]) amounted to 90 S; in assay [2] (1000 g ai/ha), 100 S; in assay [12] (setting [22]), 100 C; in assay [12] (1000 g ai/ha), 100 C. Besides, the “Plant response rating PWR” value worked out at 90 C in assay [14] (setting [21]), 100 C in assay [14] (1000 g ai/ha), 100 C in assay [5] (setting [21]) and 100 C in [5] (1000 g ai/ha). The “Plant response rating WWT” value in assay [3] (setting [22]) is recorded as 30 S; in assay [3] (1000 g ai/ha), 90 S. Further, the “Plant response rating RWC” value in [4] (setting [21]) amounted to 100 C; in assay [4] (1000 g ai/ha), 90 S. Further, the “Plant response rating CPI” value in the assay on corn (CPI, Zea mays) (1000 g ai/ha) is recorded as 50 S. Moreover, the figures for the “Plant response rating KOC” value in assay [10] (setting [21]), in assay [10] (1000 g ai/ha) and in assay [8] (1000 g ai/ha) were 10 S, 100 C and 100 C, respectively. Besides, the “Plant response rating GAL” value in [6] (setting [21]), in [6] (setting [22]) and in [6] (1000 g ai/ha) was 100 C 100 C 100 C 100 C 100 C throughout. Also, the “Plant response rating RGI” value in assay [7] (1000 g ai/ha), in assay [11] (setting [22]) and in assay [11] (1000 g ai/ha) was 100 S each time. Further, the entries for the “Plant response rating BKG” value in assay [13] (setting [21]) and in assay [13] (1000 g ai/ha) were 0 and 80 S, respectively.
